Reference: patent publication US5595995A, “Pyridyl-propan-2-yl esters of 1-adamantane carboxylates” (priority 1992, dated 1997)

Key:
a species of yeast = conditions: Korytnyk and Fricke, J. Med. Chem. 11, 180-181 (1968); cited from earlier work
[1] = system: acute toxicity in mice of 4-vinylpyridine; conditions: J. Med. Chem. 16, 865-867 (1973); cited from earlier work
aromatase = molecular target: T1, aromatase (Homo sapiens, UniProt P11511); experiment: biochemical
T1 sequence (P11511 1-503): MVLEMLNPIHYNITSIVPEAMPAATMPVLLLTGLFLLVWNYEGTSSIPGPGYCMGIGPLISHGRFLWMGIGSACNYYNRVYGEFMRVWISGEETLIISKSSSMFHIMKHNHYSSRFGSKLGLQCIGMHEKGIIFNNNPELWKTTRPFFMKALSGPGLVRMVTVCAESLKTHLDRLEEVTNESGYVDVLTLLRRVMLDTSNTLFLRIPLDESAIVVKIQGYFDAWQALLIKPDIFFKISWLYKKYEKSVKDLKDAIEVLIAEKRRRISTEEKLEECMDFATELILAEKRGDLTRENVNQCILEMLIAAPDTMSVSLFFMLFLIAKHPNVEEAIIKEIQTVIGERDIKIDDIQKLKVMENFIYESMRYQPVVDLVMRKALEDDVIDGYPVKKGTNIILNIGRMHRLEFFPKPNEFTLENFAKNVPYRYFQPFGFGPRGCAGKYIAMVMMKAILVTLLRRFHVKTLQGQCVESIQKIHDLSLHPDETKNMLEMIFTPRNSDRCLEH

lyase = molecular target: T2, lyase (Homo sapiens, UniProt P05093); experiment: biochemical
T2 sequence (P05093 1-508): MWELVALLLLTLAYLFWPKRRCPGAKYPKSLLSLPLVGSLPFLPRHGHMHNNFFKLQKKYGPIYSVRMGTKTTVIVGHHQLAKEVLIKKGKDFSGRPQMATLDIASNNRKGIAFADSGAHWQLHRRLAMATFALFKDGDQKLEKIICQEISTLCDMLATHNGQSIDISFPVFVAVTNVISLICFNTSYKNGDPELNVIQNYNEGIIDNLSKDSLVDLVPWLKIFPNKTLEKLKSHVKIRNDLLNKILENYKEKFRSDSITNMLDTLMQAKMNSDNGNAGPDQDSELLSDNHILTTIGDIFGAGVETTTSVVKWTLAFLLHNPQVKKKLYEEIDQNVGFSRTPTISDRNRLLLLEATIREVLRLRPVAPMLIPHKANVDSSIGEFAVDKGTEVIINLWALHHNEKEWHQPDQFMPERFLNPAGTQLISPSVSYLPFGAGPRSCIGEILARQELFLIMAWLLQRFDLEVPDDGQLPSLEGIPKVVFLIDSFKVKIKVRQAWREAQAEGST
Description: (§1) In the hydroxylase assay, the "Nucleosil" pre-column for separation of steroids was also "C18". In the lyase assay, the reaction was stopped after 1/2 hour. […] The enzyme activity was measured from 3 (not 4) concentrations of compound.

hydroxylase = molecular target: T3, hydroxylase (Homo sapiens, UniProt P05093); experiment: biochemical
T3 sequence (P05093 1-508): T2 sequence (P05093 1-508)
Description: as §1

[2] = molecular target: T4, 17α-hydroxylase/C17-20 lyase enzyme complex (Homo sapiens, UniProt P05093); experiment: hydroxylase/lyase inhibition, general statements on potency; format: biochemical; conditions: of the order of; greater than the less good compounds of formula (3)
T4 construct: for hydroxylase determinations, the microsomal preparation, prepared according to S. E. Bartie et al; from tissue
T4 sequence (P05093 1-508): T2 sequence (P05093 1-508)
Description: as §1

[3] = resistance of the esters to hydrolytic cleavage (method of R. McCague et al., 1990); conditions: compared with the other esters of Examples 1-8

IC50 (aromatase) [nM] | IC50 (lyase) [nM] | IC50 (hydroxylase) [nM] | Compound | also measured
 |  |  | Cc1c(COC(=O)C23CC4CC(CC(C4)C2)C3)cc(CO)nc1O | growth inhibition of yeast (a species of yeast): weak growth inhibitors of a species of yeast
 |  |  | Cc1c(COC(=O)C23CC4CC(CC(C4)C2)C3)cnc(CO)c1O | growth inhibition of yeast (a species of yeast): weak growth inhibitors of a species of yeast; reversal of the acute toxicity of 4-vinylpyridine [1]: reverse the acute toxicity in mice of 4-vinylpyridine
1400 | 500 | 1300 | CC(CC(=O)C12CC3CC(CC(C3)C1)C2)c1cccnc1 (racemic) [Example 10, (±)-1-(1-Adamantyl)-3-(3-pyridyl)butan-1-one] | 
2700 | 700 | 1000 | CC(Cc1cccnc1)C(=O)C12CC3CC(CC(C3)C1)C2 (racemic) [Example 11, (±)-1-(1-Adamantyl)-2-methyl-3-(3-pyridyl)propan-1-one] | 
 |  |  | CC(C)(OC(=O)C12CC3CC(CC(C3)C1)C2)c1ccncc1 [Example 4, 2-(4-Pyridyl)propan-2-yl 1-adamantanecarboxylate] | resistance to hydrolytic cleavage [3]: considerably more resistant to cleavage than the other esters
 |  |  | CC(C)(OC(=O)C12CC3CC(CC(C3)C1)C2)c1cccnc1 [Example 8, 2-(3-Pyridyl)propan-2-yl 1-adamantanecarboxylate] | resistance to hydrolytic cleavage [3]: considerably more resistant to cleavage than the other esters
3400 | 450 | 2200 | O=C(CCc1cccnc1)C12CC3CC(CC(C3)C1)C2 [Example 9, 1-(1-Adamantyl)-3-(3-pyridyl)propan-1-one] | 

Compound | IC50 (aromatase) [nM] | IC50 (lyase) [nM] | IC50 (hydroxylase) [nM] | also measured
O=C(NCc1ccncc1)C1CCCCC1 [Cy NH H H 4, reference compound] |  | 10000 | 40000 | IC50 against lyase and hydroxylase relative to the less good compounds of formula (3) [2]: ~20 ×
